Results published in PMC10600007, “Structures illustrate step-by-step mitochondrial transcription initiation” (Nature, 2023).

T1: y-mtRNAP–Mtf1 (ΔN100 y-mtRNAP with Mtf1) (Saccharomyces cerevisiae, UniProt P13433)
T1 construct: gene RPO41; RPO41 lacking 100 N-terminal residues, His6 tag removed by TEV; Mtf1 His6-tagged (removal not described); both from E. coli; complex assembled on pre-melted promoter DNA; with Mitochondrial transcription factor 1
T1 sequence (P13433 101-1351): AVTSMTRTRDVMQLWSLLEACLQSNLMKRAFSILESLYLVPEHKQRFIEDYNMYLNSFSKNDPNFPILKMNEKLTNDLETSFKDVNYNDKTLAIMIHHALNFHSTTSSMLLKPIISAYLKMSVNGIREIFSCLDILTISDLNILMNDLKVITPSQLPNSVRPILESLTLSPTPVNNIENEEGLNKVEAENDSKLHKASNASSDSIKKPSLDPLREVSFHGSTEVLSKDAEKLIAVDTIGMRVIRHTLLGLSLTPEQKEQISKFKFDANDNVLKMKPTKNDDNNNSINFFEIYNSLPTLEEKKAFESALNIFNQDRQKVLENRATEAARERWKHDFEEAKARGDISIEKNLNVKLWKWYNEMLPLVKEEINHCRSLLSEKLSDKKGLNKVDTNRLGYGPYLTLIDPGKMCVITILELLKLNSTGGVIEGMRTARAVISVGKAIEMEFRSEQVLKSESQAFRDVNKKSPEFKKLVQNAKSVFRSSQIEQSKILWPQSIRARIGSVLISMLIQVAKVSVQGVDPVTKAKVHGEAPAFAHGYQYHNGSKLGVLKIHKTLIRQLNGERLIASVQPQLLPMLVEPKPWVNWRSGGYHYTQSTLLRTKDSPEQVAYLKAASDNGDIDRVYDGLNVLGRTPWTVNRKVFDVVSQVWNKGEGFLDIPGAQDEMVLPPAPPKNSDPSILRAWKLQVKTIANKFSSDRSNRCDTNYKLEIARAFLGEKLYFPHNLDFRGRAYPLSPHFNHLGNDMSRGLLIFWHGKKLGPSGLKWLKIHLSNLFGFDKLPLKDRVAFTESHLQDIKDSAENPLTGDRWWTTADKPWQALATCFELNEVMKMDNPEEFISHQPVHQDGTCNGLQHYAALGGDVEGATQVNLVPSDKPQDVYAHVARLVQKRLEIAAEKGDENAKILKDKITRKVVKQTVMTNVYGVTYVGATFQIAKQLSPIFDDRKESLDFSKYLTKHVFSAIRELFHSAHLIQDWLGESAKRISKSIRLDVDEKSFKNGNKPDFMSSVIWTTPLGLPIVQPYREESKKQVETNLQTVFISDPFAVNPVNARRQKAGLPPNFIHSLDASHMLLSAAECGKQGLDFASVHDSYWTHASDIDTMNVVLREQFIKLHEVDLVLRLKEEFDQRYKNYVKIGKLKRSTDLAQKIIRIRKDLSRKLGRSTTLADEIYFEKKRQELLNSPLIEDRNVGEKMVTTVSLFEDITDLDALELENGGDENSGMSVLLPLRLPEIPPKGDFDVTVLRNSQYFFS
T1 sequence (P14908 2-341 partner): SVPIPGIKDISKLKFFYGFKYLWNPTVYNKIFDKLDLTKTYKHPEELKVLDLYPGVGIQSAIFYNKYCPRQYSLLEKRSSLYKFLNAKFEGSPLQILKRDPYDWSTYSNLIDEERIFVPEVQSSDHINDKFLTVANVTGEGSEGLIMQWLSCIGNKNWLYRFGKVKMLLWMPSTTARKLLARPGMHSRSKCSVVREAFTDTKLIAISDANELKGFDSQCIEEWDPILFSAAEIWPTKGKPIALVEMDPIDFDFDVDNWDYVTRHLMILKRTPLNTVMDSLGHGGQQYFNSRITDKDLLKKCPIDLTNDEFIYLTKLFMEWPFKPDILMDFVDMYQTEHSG

T2: ΔN100 y-mtRNAP (yeast mitochondrial RNA polymerase, Rpo41, 100 amino-terminal residues deleted) (S. cerevisiae, UniProt P13433 101-1351)
T2 construct: S. cerevisiae mitochondrial RNA polymerase Rpo41 (y-mtRNAP), UniProt P13433; 100 amino-terminal residues deleted; end residue S1351; Plasmid ProEXHTB; In the structures the chain is traced only from I386 (A407 in IC4) to S1351 with gaps; source: E. coli BL21 RIL Codon Plus, purified (DEAE/Ni-Sepharose, heparin, TEV cleavage, second Ni-Sepharose flow-through)
T2 sequence (looked up): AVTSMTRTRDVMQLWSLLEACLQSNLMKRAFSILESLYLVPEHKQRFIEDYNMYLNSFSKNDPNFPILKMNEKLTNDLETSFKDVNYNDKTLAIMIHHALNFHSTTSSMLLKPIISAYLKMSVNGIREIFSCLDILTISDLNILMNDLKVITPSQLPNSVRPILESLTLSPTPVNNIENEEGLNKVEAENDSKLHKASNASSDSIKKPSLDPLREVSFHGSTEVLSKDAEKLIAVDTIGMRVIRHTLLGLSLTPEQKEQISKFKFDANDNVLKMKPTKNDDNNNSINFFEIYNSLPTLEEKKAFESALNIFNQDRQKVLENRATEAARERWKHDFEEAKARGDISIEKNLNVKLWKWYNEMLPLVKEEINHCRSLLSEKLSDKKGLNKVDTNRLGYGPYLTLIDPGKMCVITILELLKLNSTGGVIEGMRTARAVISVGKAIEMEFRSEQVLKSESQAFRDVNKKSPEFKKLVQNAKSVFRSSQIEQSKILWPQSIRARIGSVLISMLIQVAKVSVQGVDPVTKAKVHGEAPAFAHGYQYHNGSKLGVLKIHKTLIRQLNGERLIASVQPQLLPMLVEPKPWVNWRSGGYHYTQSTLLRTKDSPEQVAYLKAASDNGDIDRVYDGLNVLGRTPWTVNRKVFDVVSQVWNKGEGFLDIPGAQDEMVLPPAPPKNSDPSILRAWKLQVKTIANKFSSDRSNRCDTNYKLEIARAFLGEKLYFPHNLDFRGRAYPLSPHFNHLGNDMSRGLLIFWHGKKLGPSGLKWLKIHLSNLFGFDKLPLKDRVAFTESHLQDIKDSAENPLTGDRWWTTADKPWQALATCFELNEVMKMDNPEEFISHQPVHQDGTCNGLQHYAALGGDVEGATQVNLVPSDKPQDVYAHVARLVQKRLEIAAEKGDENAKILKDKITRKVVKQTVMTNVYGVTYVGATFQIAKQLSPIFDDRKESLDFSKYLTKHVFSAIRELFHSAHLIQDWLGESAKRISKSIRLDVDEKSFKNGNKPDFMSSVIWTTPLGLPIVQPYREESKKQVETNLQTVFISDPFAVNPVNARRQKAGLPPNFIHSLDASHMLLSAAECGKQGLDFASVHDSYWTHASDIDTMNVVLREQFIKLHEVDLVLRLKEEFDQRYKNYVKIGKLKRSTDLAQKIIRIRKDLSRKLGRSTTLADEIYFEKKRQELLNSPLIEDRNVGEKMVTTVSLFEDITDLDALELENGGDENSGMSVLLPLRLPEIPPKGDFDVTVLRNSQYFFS


Experiments:
[1] = target: T1, y-mtRNAP–Mtf1 (ΔN100 y-mtRNAP with Mtf1); experiment: cryo-EM structure (IC2, […] Å); format: binding; conditions: pre-melted 33-bp bubble promoter DNA; Mg2+; pH 7.0; 4 °C; two GTP at +1 (P site) and +2 (N site) of polymerase active site
[2] = target: T2, ΔN100 y-mtRNAP (yeast mitochondrial RNA …); experiment: cryo-EM structure; PmIC of ΔN100 y-mtRNAP, Mtf1 and pre-melted bubble promoter DNA (molar ratio 1:1.2:1.2, 2 h, 4 °C), purified by SEC, then incubated with NTPs or pppGpG 2 h at 4 °C to give IC2, IC4-IC8 and IC8'; 50 mM Bis-tris propane pH 7.0, 100 mM NaCl, 5 mM MgCl2, 1 mM EDTA, 2 mM DTT; conditions: both partners purified

binding result [2] | Molecule | cryo-EM structure (IC2, 3.47 Å) [1]
 | Nc1nc2c(ncn2[C@@H]2O[C@H](COP(=O)(O)OP(=O)(O)OP(=O)(O)O)[C@@H](O)[C@H]2O)c(=O)[nH]1 [GTP] | IC2 was captured with two GTP molecules bound at the transcription start site poised for catalysis
binds | Mtf1 (yeast mitochondrial transcription factor) (natural protein, S. cerevisiae, S. cerevisiae Mtf1, mitochondrial transcription factor; wild type; traced in the structures from S2 to at most G341 (end residue); Plasmid pTrcHisC; No removal of the His6 tag is described; N-terminal domain residues 1-252, C-terminal domain residues 255-341 are named, so the whole protein is likely; source: E. coli BL21, purified (DEAE/Ni-Sepharose, heparin-Sepharose)) SVPIPGIKDISKLKFFYGFKYLWNPTVYNKIFDKLDLTKTYKHPEELKVLDLYPGVGIQSAIFYNKYCPRQYSLLEKRSSLYKFLNAKFEGSPLQILKRDPYDWSTYSNLIDEERIFVPEVQSSDHINDKFLTVANVTGEGSEGLIMQWLSCIGNKNWLYRFGKVKMLLWMPSTTARKLLARPGMHSRSKCSVVREAFTDTKLIAISDANELKGFDSQCIEEWDPILFSAAEIWPTKGKPIALVEMDPIDFDFDVDNWDYVTRHLMILKRTPLNTVMDSLGHGGQQYFNSRITDKDLLKKCPIDLTNDEFIYLTKLFMEWPFKPDILMDFVDMYQTEHSG | 
